Source: PubChem BioAssay AID449762 (Southern Research Specialized Biocontainment Screening …, 2010)
Inconclusive results are not listed.

Tested on: M. tuberculosis H37Rv growth inhibition, 7H9 media
Test: M. tuberculosis growth inhibition, HTS (AID 449762);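 also: bacterial growth assessed after seven days of incubation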
Conditions: for IC90: measured here: IC90 growth inhibition

| Structure (SMILES) | IC50 [µM] | IC90 [µM] |
| --- | --- | --- |
| Cc1cc(N/N=C2/CCCc3ccccc32)nc2ccccc12 | 31.7 | 37.9 |
| CC(=O)CCSc1ncnc2sc(-c3ccccc3)cc12 |  | > 100 |
| CNC(C)C#Cc1ccc2oc3cc(C)c(C)cc3c(=O)c2c1 (configuration not stated) | 4.55 | 17.9 |
| O=C(CSc1nn(-c2ccc(F)cc2)c(=S)s1)NCC1CCCO1 (configuration not stated) | 6.13 | > 100 |
| O=c1[nH]c(=O)n(Cc2ccccc2)c2nc(-c3ccc(Oc4ccc(F)cc4)c([N+](=O)[O-])c3)n(CCO)c12 | 24.4 | > 100 |
| CC(C)c1ccc(N2C(=O)NC(=O)/C(=C\C=C\c3ccco3)C2=O)cc1 | 22.1 | 35.7 |
| O=C1CCC(=O)N1CNc1ccc(Oc2ccccc2)cc1 |  | > 100 |
| O=C(/C=C/c1cn(-c2ccccc2)nc1-c1cccnc1)c1ccco1 | 14.8 | 46.6 |
| C=CCc1c(C)nc(SC)nc1Nc1ccc(C(C)=O)cc1 | 23.3 | 32.6 |
| CCN(CC)Cc1nc2c(c(=O)[nH]1)C(CC)(CC)Cc1ccccc1-2 | 4.46 | 18.4 |
| COc1ccc(C(=O)c2c(C(F)(F)F)oc3c2C(=O)c2ccccc2C3=O)cc1OC | 12 | 17.7 |
| CCOc1ccc(-c2cc(C(=O)NCCCn3ccnc3)c3cc(Br)ccc3n2)cc1 | 24.1 | 27.4 |
| CN1CCN(CC/C=C2/c3ccccc3Sc3ccc(S(=O)(=O)N(C)C)cc32)CC1 |  | > 100 |
| CN(C)C(=O)C1C2NC(=S)N(c3ccc(Cl)cc3)C1(C)Oc1ccc(Cl)cc12 (configuration not stated) | 23.6 | 26.9 |
| Cc1cc2[nH]c3c(c[n+](C)c4ccccc34)c2cc1C | 8.57 | 13.1 |
| Cc1cc(=O)n2[nH]c(Nc3cccc(Cl)c3)nc2n1 | 20.4 | 33 |
| CCCCCCc1cc2cc(C(=O)NCc3ccccc3)c(=N)oc2cc1O | 3.45 | 5.73 |
| CN(C)C1(CNC(=O)Nc2ccc(Cl)c(Cl)c2)CCCCC1 | 11.2 | 12.5 |
| COc1cc(N)c(Cl)cc1C(=O)N[C@H]1CCN(CCCOc2ccc(F)cc2)C[C@H]1OC | 43.8 | 55.2 |
| N#CC(C(=O)Nc1ccccc1)=C1Nc2ccccc2N1 | 34.9 | > 100 |
| Cc1oc2c(c1C(=O)NCc1cccnc1)C(=O)c1ccccc1C2=O | 9.78 | 13.9 |
| CCN(CC)c1ccc2nc3ccccc3[n+](CC)c2c1 | 2.71 | 5.66 |
| Cc1nc2sccn2c1-c1nc(-c2cc3ccccc3o2)cs1 | 52.5 | 90.7 |

| Structure (SMILES) | IC50 [µM] | IC90 [µM] |
| --- | --- | --- |
| CC1(C)c2[nH]c3ccccc3c2C[C@@H]2C(=O)N(Cc3ccccc3F)C(=O)N21 | 47.1 | > 100 |
| c1ccc2sc(Sc3ncnc4sccc34)nc2c1 | 3.36 | 6.95 |
| CCOC(=O)CSc1nn(-c2ccccc2)c(=S)s1 | 4.75 | 9.22 |
| COc1ccccc1NC(=O)Nc1nc(CC(=O)N2CCN(c3ccccc3F)CC2)cs1 | 41.7 | > 100 |
| COc1cc(NC(=O)c2ccc(COc3ccccc3Br)o2)cc(OC)c1OC | 44.3 | > 100 |
| COc1cccc(NC(=S)/C(=C(\[O-])c2cc(C)n(-c3ccccc3F)c2C)[n+]2ccc(N(C)C)cc2)c1 | 55.9 | 70.9 |
| COc1ccc(NC(=O)CSc2nnc(-c3ccccn3)n2N)cc1Cl | 18.1 | > 100 |
| Cc1ccc(-n2nnc3c(=O)oc4ccccc4c32)cc1 | < 0.2 | 19.9 |
| COc1cnc(-c2ccccn2)nc1Oc1ccc(Cl)c2ccccc12 | < 0.2 | 2.86 |
| CN1CCN(Cc2nc3ccccc3c(=O)n2Cc2nc(-c3ccc4ccccc4c3)cs2)CC1 | 22.3 | 25.7 |
| CCc1ccc(NC(=S)/N=C(\N)Nc2nc(C)c3cc(CC)ccc3n2)cc1 | 7.31 | 40 |
| CCOc1ccc(-c2cnc(NCc3cccc4ccccc34)n2CCOC)cc1 | 5.56 | 8.14 |
| C(=C\c1nccc2c1[nH]c1ccccc12)/c1ccccc1 | 28.5 | 48.2 |
| COc1c[nH]n(C2CCCCC2)c(=O)c1=O | 11.8 | 18.1 |
| N#CC(C(=O)NCc1ccco1)c1nc2ccccc2nc1N1CCOCC1 (configuration not stated) | 43 | 45.2 |
| Oc1cc(NCc2cccnc2)ccc1-c1nc2ccccc2o1 | 12.6 | 44.4 |
| CC(CC(=O)Nc1ccc(Cl)c([N+](=O)[O-])c1)c1ccccc1 (configuration not stated) | 16 | 40.7 |
| CCOC(=O)CNC(=S)n1cnc(N)n1 | 27.8 | 60.6 |
| CN(C)c1ccc(CNC2C3CC4CC(C3)CC2C4)cc1 (configuration not stated) | 11.8 | 13 |
| Nc1nnnn1/N=C/C(Br)=C/c1ccccc1 | 1.08 | 8.66 |
| CC(=O)/C(=C\Nc1ccc(OCc2ccccc2)cc1)c1ccccc1 | 2.28 | 12.1 |
| CCOC(=O)c1ccc(N=C2C(=S)N(c3ccc(C(=O)OCC)cc3)C(=N)N2/N=C/c2ccccc2)cc1 | 68.9 | > 100 |
